From patent publication US12077503B2, “Substituted cyclic amides and their use as herbicides” (FMC CORPORATION, priority 2015, dated 2024)

Tests used:
Assay type in all cases: in vivo
[1] = test system: ragweed (common ragweed, Ambrosia elatior); assay: Test A preemergence; conditions: for Plant response rating, Ragweed: 125 g ai/ha, preemergence, 0 to 100 scale (0 no effect, 100 complete control); for Ragweed plant response rating (0 to 100 scale, 0 is no effect, 100 is complete control): Preemergence, 500 g ai/ha, visual injury approx. 10 d
In short: (§1)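 Seeds sprayed preemergence with a directed soil spray, or plants at 2 to 10 cm height and one- to two-leaf stage sprayed postemergence, with test chemicals in a non-phytotoxic solvent mixture containing surfactant, in loam soil–sand blend. Injury rated visually against untreated controls after about 10 d in greenhouse, 0 (no effect) to 100 (complete control).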

[2] = test system: pigweed (Amaranthus retroflexus); assay: Test A preemergence; conditions: for Plant response rating, Pigweed: 125 g ai/ha, preemergence, 0 to 100 scale (0 no effect, 100 complete control); for Pigweed plant response rating (0 to 100 scale, 0 is no effect, 100 is complete control): Preemergence, 500 g ai/ha, visual injury approx. 10 d
[3] = test system: ryegrass, Italian (Italian ryegrass, Lolium multiflorum); assay: Test A preemergence; conditions: for Plant response rating, Ryegrass, Italian: 125 g ai/ha, preemergence, 0 to 100 scale (0 no effect, 100 complete control); for Ryegrass, Italian plant response rating (0 to 100 scale, 0 is no effect, 100 is complete control): Preemergence, 500 g ai/ha, visual injury approx. 10 d
In short: as §1

[4] = test system: giant foxtail (Setaria faberii); assay: Test A preemergence; conditions: for Plant response rating, Foxtail, Giant: 125 g ai/ha, preemergence, 0 to 100 scale (0 no effect, 100 complete control); for Foxtail, Giant plant response rating (0 to 100 scale, 0 is no effect, 100 is complete control): Preemergence, 500 g ai/ha, visual injury approx. 10 d
In short: as §1

[5] = test system: barnyardgrass (Echinochloa crus-galli); assay: Test A preemergence; conditions: for Plant response rating, Barnyardgrass: 125 g ai/ha, preemergence, 0 to 100 scale (0 no effect, 100 complete control); for Barnyardgrass plant response rating (0 to 100 scale, 0 is no effect, 100 is complete control): Preemergence, 500 g ai/ha, visual injury approx. 10 d
In short: as §1

[6] = test system: Kochia (Kochia scoparia); assay: Test A preemergence; conditions: for Plant response rating, Kochia: 125 g ai/ha, preemergence, 0 to 100 scale (0 no effect, 100 complete control); for Kochia plant response rating (0 to 100 scale, 0 is no effect, 100 is complete control): Preemergence, 500 g ai/ha, visual injury approx. 10 d
In short: as §1

[7] = test system: Galium (catchweed bedstraw, Galium aparine); assay: Test A postemergence; conditions: postemergence; for Galium plant response rating: 125 g ai/ha, visual injury rating on 0 to 100 scale (0 no effect, 100 complete control), approx. 10 d; for Plant response rating, Galium: 500 g ai/ha, 0 to 100 scale, 0 no effect, 100 complete control
In short: as §1

[8] = test system: blackgrass (Alopecurus myosuroides); assay: Test A postemergence; conditions: postemergence; for Blackgrass plant response rating: 125 g ai/ha, visual injury rating on 0 to 100 scale (0 no effect, 100 complete control), approx. 10 d; for Plant response rating, Blackgrass: 500 g ai/ha, 0 to 100 scale, 0 no effect, 100 complete control
In short: as §1

[9] = test system: ragweed (common ragweed, Ambrosia elatior); assay: Test A postemergence; conditions: postemergence; for Ragweed plant response rating: 125 g ai/ha, visual injury rating on 0 to 100 scale (0 no effect, 100 complete control), approx. 10 d; for Plant response rating, Ragweed: 500 g ai/ha, 0 to 100 scale, 0 no effect, 100 complete control
In short: as §1

[10] = test system: pigweed (Amaranthus retroflexus); assay: Test A postemergence; conditions: postemergence; for Pigweed plant response rating: 125 g ai/ha, visual injury rating on 0 to 100 scale (0 no effect, 100 complete control), approx. 10 d; for Plant response rating, Pigweed: 500 g ai/ha, 0 to 100 scale, 0 no effect, 100 complete control
In short: as §1

[11] = test system: ryegrass, Italian (Italian ryegrass, Lolium multiflorum); assay: Test A postemergence; conditions: postemergence; for Ryegrass, Italian plant response rating: 125 g ai/ha, visual injury rating on 0 to 100 scale (0 no effect, 100 complete control), approx. 10 d; for Plant response rating, Ryegrass, Italian: 500 g ai/ha, 0 to 100 scale, 0 no effect, 100 complete control
In short: as §1

[12] = test system: wheat (Triticum aestivum); assay: Test A postemergence; conditions: postemergence; for Wheat plant response rating: 125 g ai/ha, visual injury rating on 0 to 100 scale (0 no effect, 100 complete control), approx. 10 d; for Plant response rating, Wheat: 500 g ai/ha, 0 to 100 scale, 0 no effect, 100 complete control
In short: as §1

[13] = test system: giant foxtail (Setaria faberii); assay: Test A postemergence; conditions: postemergence; for Foxtail, Giant plant response rating: 125 g ai/ha, visual injury rating on 0 to 100 scale (0 no effect, 100 complete control), approx. 10 d; for Plant response rating, Foxtail, Giant: 500 g ai/ha, 0 to 100 scale, 0 no effect, 100 complete control
In short: as §1

[14] = test system: barnyardgrass (Echinochloa crus-galli); assay: Test A postemergence; conditions: postemergence; for Barnyardgrass plant response rating: 125 g ai/ha, visual injury rating on 0 to 100 scale (0 no effect, 100 complete control), approx. 10 d; for Plant response rating, Barnyardgrass: 500 g ai/ha, 0 to 100 scale, 0 no effect, 100 complete control
In short: as §1

[15] = test system: corn (Zea mays); assay: Test A postemergence; conditions: postemergence; for Corn plant response rating: 125 g ai/ha, visual injury rating on 0 to 100 scale (0 no effect, 100 complete control), approx. 10 d; for Plant response rating, Corn: 500 g ai/ha, 0 to 100 scale, 0 no effect, 100 complete control
In short: as §1

[16] = test system: Kochia (Kochia scoparia); assay: Test A postemergence; conditions: postemergence; for Kochia plant response rating: 125 g ai/ha, visual injury rating on 0 to 100 scale (0 no effect, 100 complete control), approx. 10 d; for Plant response rating, Kochia: 500 g ai/ha, 0 to 100 scale, 0 no effect, 100 complete control
In short: as §1

[17] = test system: ducksalad (Heteranthera limosa); assay: Test B flooded paddy test; conditions: Flood, 250 g ai/ha; 0 to 100 scale where 0 is no effect and 100 is complete control; 13 to 15 d
In short: (§2)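 Flooding to 3 cm over soil accompanied treatment, which consisted of adding compound to the standing water around 2-leaf plants; depth was then maintained. Visual assessment versus controls followed at 13 to 15 d (scale 0–100, 0 meaning no effect).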

[18] = test system: rice (Oryra sativa); assay: Test B flooded paddy test; conditions: Flood, 250 g ai/ha; 0 to 100 scale where 0 is no effect and 100 is complete control; 13 to 15 d
In short: as §2

[19] = test system: barnyardgrass (Echinochloa crus-galli); assay: Test B flooded paddy test; conditions: Flood, 250 g ai/ha; 0 to 100 scale where 0 is no effect and 100 is complete control; 13 to 15 d
In short: as §2

[20] = test system: sedge, umbrella (small-flower umbrella sedge, Cyperus difformis); assay: Test B flooded paddy test; conditions: Flood, 250 g ai/ha; 0 to 100 scale where 0 is no effect and 100 is complete control; 13 to 15 d
In short: as §2

Row | SMILES | Plant response rating, Ragweed [1] | Ragweed plant response rating (0 to 100 scale, 0 is no effect, 100 is complete control) [1] | Plant response rating, Pigweed [2] | Pigweed plant response rating (0 to 100 scale, 0 is no effect, 100 is complete control) [2] | Plant response rating, Ryegrass, Italian [3] | Ryegrass, Italian plant response rating (0 to 100 scale, 0 is no effect, 100 is complete control) [3] | Plant response rating, Foxtail, Giant [4] | Foxtail, Giant plant response rating (0 to 100 scale, 0 is no effect, 100 is complete control) [4] | Plant response rating, Barnyardgrass [5] | Barnyardgrass plant response rating (0 to 100 scale, 0 is no effect, 100 is complete control) [5] | Plant response rating, Kochia [6] | Kochia plant response rating (0 to 100 scale, 0 is no effect, 100 is complete control) [6] | Galium plant response rating [7] | Plant response rating, Galium [7] | Blackgrass plant response rating [8] | Plant response rating, Blackgrass [8] | Ragweed plant response rating [9] | Plant response rating, Ragweed [9] | Pigweed plant response rating [10] | Plant response rating, Pigweed [10] | further results
1 | Cc1c(F)ccc(NC(=O)C2C(=O)NCC2c2cccc(C(F)(F)F)c2)c1F (stereo not drawn) [Compound 463] | 0 | 0 | 0 | 0 | 0 | 20 | 80 | 90 | 50 | 80 | 0 | 0 | 0 | 0 | 20 | 70 | 0 | 0 | 0 | 0 | Ryegrass, Italian plant response rating [11]: 0; Plant response rating, Ryegrass, Italian [11]: 30; Wheat plant response rating [12]: 0; Plant response rating, Wheat [12]: 0; Foxtail, Giant plant response rating [13]: 70; Plant response rating, Foxtail, Giant [13]: 70; Barnyardgrass plant response rating [14]: 50; Plant response rating, Barnyardgrass [14]: 70; Corn plant response rating [15]: 0; Plant response rating, Corn [15]: 0; Kochia plant response rating [16]: 0; Plant response rating, Kochia [16]: 0; Plant response rating, Ducksalad [17]: 70; Plant response rating, Rice [18]: 0; Plant response rating, Barnyardgrass [19]: 25; Plant response rating, Sedge, Umbrella [20]: 0
2 | CCc1ccc(C2CNC(=O)C2C(=O)Nc2ccccc2F)cc1 (stereo not drawn) [Compound 466] | 0 | 30 | 0 | 0 | 0 | 20 | 70 | 90 | 90 | 90 | 0 | 0 | 0 | 0 | 30 | 60 | 0 | 30 | 0 | 0 | Ryegrass, Italian plant response rating [11]: 0; Plant response rating, Ryegrass, Italian [11]: 20; Wheat plant response rating [12]: 0; Plant response rating, Wheat [12]: 20; Foxtail, Giant plant response rating [13]: 20; Plant response rating, Foxtail, Giant [13]: 80; Barnyardgrass plant response rating [14]: 80; Plant response rating, Barnyardgrass [14]: 90; Corn plant response rating [15]: 0; Plant response rating, Corn [15]: 30; Kochia plant response rating [16]: 0; Plant response rating, Kochia [16]: 0; Plant response rating, Ducksalad [17]: 0; Plant response rating, Rice [18]: 0; Plant response rating, Barnyardgrass [19]: 0; Plant response rating, Sedge, Umbrella [20]: 0
